Measurements as given in the CheMixHub viscosity set.

Assay: xn = mol fraction of the nth substance listed

c1ccccc1 + CO
viscosity [mPa·s]
Conditions	293.15 K	298.15 K	303.15 K	313.15 K	323.15 K
101 kPa, x1 = 0.1598	–	–	0.564	0.491	0.411
101 kPa, x1 = 0.3449	–	–	0.563	0.507	0.405
101 kPa, x1 = 0.4474	–	–	0.559	0.478	0.414
101 kPa, x1 = 0.7425	–	–	0.546	0.469	0.411
101 kPa, x1 = 0.8277	–	–	0.54	0.49	0.413
101 kPa, x2 = 0.0504	–	0.581	–	–	–
101 kPa, x2 = 0.1	0.622	0.563	–	–	–
101 kPa, x2 = 0.152	0.615	–	0.534	0.468	0.416
101 kPa, x2 = 0.1998	–	0.553	–	–	–
101 kPa, x2 = 0.2	0.613	–	–	–	–
101 kPa, x2 = 0.272	0.613	–	0.532	0.461	0.414
101 kPa, x2 = 0.2982	–	0.56	–	–	–
101 kPa, x2 = 0.4	0.619	0.561	–	–	–
101 kPa, x2 = 0.444	0.619	–	0.536	0.469	0.415
101 kPa, x2 = 0.5	–	0.566	–	–	–
101 kPa, x2 = 0.6	0.626	0.565	–	–	–
101 kPa, x2 = 0.632	0.624	–	0.535	0.467	0.414
101 kPa, x2 = 0.7	–	0.56	–	–	–
101 kPa, x2 = 0.766	0.619	–	0.534	0.466	0.412
101 kPa, x2 = 0.8	0.626	–	–	–	–
101 kPa, x2 = 0.8009	–	0.557	–	–	–
101 kPa, x2 = 0.9	0.61	–	–	–	–
101 kPa, x2 = 0.901	0.604	–	0.527	0.464	0.411
101 kPa, x2 = 0.9013	–	0.553	–	–	–
101 kPa, x2 = 0.95	–	0.551	–	–	–
101.33 kPa, x1 = 0.04357	0.59	–	0.5121	0.4473	0.3935
101.33 kPa, x1 = 0.0572	–	–	0.562	0.5	0.415
101.33 kPa, x1 = 0.1598	–	–	0.564	0.491	0.411
101.33 kPa, x1 = 0.2216	0.6132	–	0.528	0.4585	0.4016
101.33 kPa, x1 = 0.2552	–	–	0.56	0.505	0.418
101.33 kPa, x1 = 0.3449	–	–	0.563	0.507	0.405
101.33 kPa, x1 = 0.4216	0.6197	–	0.5315	0.4613	0.4039
101.33 kPa, x1 = 0.4474	–	–	0.559	0.478	0.414
101.33 kPa, x1 = 0.603	0.6164	–	0.5296	0.4593	0.4034
101.33 kPa, x1 = 0.7425	–	–	0.546	0.469	0.411
101.33 kPa, x1 = 0.7816	0.6138	–	0.5278	0.4611	0.4073
101.33 kPa, x1 = 0.8277	–	–	0.54	0.49	0.413
101.33 kPa, x1 = 0.9285	0.6252	–	0.5399	0.4736	0.4198
